Patent publication US20230097157A1, “Bicyclic Pyridin-2-one and pyrimidin-4-one Derivatives Useful As a Factor XIa Inhibitors” (Janssen Pharmaceutica NV, priority 2021, published 2023)
Where two headings read alike, the source gives them in different places.

Key:
human plasma kallikrein = human plasma kallikrein (Homo sapiens, UniProt P03952); assay: Kallikrein inhibition assay (FLINT) utilizing a quenched AMC peptide substrate Z-Gly-Pro-Arg-AMC; assay type: biochemical; details: kinetic (KIN) reads, read-out: Kallikrein KIN Inh IC50
Sequence of human plasma kallikrein (P03952 391-638 limits assumed): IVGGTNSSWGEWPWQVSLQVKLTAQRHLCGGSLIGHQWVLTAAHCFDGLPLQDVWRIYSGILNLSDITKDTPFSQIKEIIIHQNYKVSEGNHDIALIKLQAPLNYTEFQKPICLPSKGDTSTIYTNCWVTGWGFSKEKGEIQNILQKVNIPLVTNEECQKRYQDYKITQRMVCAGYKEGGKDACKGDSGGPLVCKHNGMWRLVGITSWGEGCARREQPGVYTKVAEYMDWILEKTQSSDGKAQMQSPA
Sequence of human plasma kallikrein (P03952 20-390 partner limits assumed): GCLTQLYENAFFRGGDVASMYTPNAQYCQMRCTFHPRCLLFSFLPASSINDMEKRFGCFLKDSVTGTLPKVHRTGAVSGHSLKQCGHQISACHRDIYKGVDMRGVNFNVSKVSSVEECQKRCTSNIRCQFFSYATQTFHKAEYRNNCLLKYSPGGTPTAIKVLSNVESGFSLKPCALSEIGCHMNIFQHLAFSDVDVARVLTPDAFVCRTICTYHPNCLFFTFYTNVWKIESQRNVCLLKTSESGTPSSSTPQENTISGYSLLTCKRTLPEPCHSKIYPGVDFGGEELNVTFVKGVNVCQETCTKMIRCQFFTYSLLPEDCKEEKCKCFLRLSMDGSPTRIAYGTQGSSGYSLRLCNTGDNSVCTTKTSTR
Procedure, shortened: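 IC50 from a 4-parameter logistic fit of % inhibition from 11 concentrations (3-fold, top 1 μM, 2% DMSO). Compound pre-incubated 30 min with 2 nM enzyme in Tris pH 7.5, NaCl, CaCl2, BSA, CHAPS, then 50 μM AMC peptide substrate added. Fluorescence (340/440 nm) followed every 5 min for 30 min at room temperature.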

Factor XIa = Factor XIa (Homo sapiens, UniProt P03951); assay: Factor XIa inhibition assay (FLINT) utilizing a fluorophore-quencher pair peptide substrate 5Fam-[…]-K5Tamra; assay type: biochemical; details: kinetic (KIN) reads, read-out: FXIa KIN Inh IC50
Sequence of Factor XIa (P03951 388-625 limits assumed): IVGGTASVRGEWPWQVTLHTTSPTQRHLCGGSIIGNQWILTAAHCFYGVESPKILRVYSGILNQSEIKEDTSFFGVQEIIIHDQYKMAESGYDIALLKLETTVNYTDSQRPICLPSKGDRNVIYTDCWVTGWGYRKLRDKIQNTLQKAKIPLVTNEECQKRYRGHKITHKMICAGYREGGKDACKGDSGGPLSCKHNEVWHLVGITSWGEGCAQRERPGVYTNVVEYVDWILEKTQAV
Sequence of Factor XIa (P03951 19-387 partner limits assumed): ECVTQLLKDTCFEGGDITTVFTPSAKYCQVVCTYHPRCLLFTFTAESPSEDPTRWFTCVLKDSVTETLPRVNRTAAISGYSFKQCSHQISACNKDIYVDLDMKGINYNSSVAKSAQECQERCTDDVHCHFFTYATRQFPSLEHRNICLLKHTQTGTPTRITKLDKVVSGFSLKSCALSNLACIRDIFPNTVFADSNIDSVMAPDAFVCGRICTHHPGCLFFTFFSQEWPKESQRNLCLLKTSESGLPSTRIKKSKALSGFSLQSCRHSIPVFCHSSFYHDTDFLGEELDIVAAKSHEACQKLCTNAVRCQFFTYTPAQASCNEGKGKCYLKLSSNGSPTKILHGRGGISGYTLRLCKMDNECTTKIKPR
Procedure, shortened: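 Compounds were tested as 11-point 3-fold dilutions from 100 nM (2% DMSO). They were preincubated 30 min with FXIa in 50 mM Tris pH 7.5, 5 mM CaCl2, then 15 μM fluorophore-quencher peptide was added. Cleavage was followed at 485/520 nm over 30 min, and IC50 was derived by 4-parameter logistic fit.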

Row | Compound | IC50 (human plasma kallikrein; values in nM) [nM] | IC50 (Factor XIa; values in nM) [nM] | IC50 (human plasma kallikrein; unit μM) [nM] | IC50 (Factor XIa; unit μM) [nM]
1 | Cc1cc(-c2cnc([C@H]3C[C@H](C)c4cc(-c5c(-n6cnnn6)ccc(Cl)c5F)cc(=O)n43)[nH]2)ccn1 (stereo in doubt) [Example 42, (1*S,3*R)-7-(3-Chloro-2-fluoro-6-(1H-tetrazol-1-yl)phenyl)-1-methyl-3-(5-(2-methylpyridin-4-yl)-1H-imidazol-2-yl)-2,3-dihydroindolizin-5(1H)-one] | 33 | 3.3 | – | –
2 | C[C@@H]1C[C@H](c2ncc(-c3ccnc(F)c3)[nH]2)n2c1cc(-c1c(-n3cnnn3)ccc(Cl)c1F)cc2=O (stereo in doubt) [Example 43, (1*R,3*R)-7-(3-Chloro-2-fluoro-6-(1H-tetrazol-1-yl)phenyl)-3-(5-(2-fluoropyridin-4-yl)-1H-imidazol-2-yl)-1-methyl-2,3-dihydroindolizin-5(1H)-one] | 108 | 12.4 | – | –
3 | C[C@H]1C[C@@H](c2ncc(-c3ccnc(F)c3)[nH]2)n2c1cc(-c1c(-n3cnnn3)ccc(Cl)c1F)cc2=O (stereo in doubt) [Example 44, (1*S,3*S)-7-(3-Chloro-2-fluoro-6-(1H-tetrazol-1-yl)phenyl)-3-(5-(2-fluoropyridin-4-yl)-1H-imidazol-2-yl)-1-methyl-2,3-dihydroindolizin-5(1H)-one] | 97.8 | 14.9 | – | –
4 | C[C@H]1C[C@@H](c2ncc(-c3ccc4nn(C)cc4c3)[nH]2)n2c1cc(-c1c(-n3cnnn3)ccc(Cl)c1F)cc2=O (stereo in doubt) [Example 46, (1*S,3*S)-7-(3-Chloro-2-fluoro-6-(1H-tetrazol-1-yl)phenyl)-1-methyl-3-(5-(2-methyl-2H-indazol-5-yl)-1H-imidazol-2-yl)-2,3-dihydroindolizin-5(1H)-one] | 488 | 431 | – | –
5 | C[C@@H]1C[C@H](c2ncc(-c3ccc4nn(C)cc4c3)[nH]2)n2c1cc(-c1c(-n3cnnn3)ccc(Cl)c1F)cc2=O (stereo in doubt) [Example 47, (1*R,3*R)-7-(3-Chloro-2-fluoro-6-(1H-tetrazol-1-yl)phenyl)-1-methyl-3-(5-(2-methyl-2H-indazol-5-yl)-1H-imidazol-2-yl)-2,3-dihydroindolizin-5(1H)-one] | 21.7 | 23.7 | – | –
6 | C[C@H]1C[C@@H](c2ncc(-c3ccc4nccn4c3)[nH]2)n2c1cc(-c1c(-n3cnnn3)ccc(Cl)c1F)cc2=O (stereo in doubt) [Example 48, (1S*,3S*)-7-(3-Chloro-2-fluoro-6-(1H-tetrazol-1-yl)phenyl)-3-(5-(imidazo[1,2-a]pyridin-6-yl)-1H-imidazol-2-yl)-1-methyl-2,3-dihydroindolizin-5(1H)-one] | – | – | > 10000 | 3000
7 | C[C@@H]1C[C@H](c2ncc(-c3ccc4nccn4c3)[nH]2)n2c1cc(-c1c(-n3cnnn3)ccc(Cl)c1F)cc2=O (stereo in doubt) [Example 49, (1R*,3R*)-7-(3-Chloro-2-fluoro-6-(1H-tetrazol-1-yl)phenyl)-3-(5-(imidazo[1,2-a]pyridin-6-yl)-1H-imidazol-2-yl)-1-methyl-2,3-dihydroindolizin-5(1H)-one] | 44.3 | 24.2 | – | –
8 | C[C@@H]1C[C@H](c2ncc(-c3ccn4nccc4c3)[nH]2)n2c1cc(-c1c(-n3cnnn3)ccc(Cl)c1F)cc2=O (stereo in doubt) [Example 52, (1*R,3*R)-7-(3-Chloro-2-fluoro-6-(1H-tetrazol-1-yl)phenyl)-1-methyl-3-(5-(pyrazolo[1,5-a]pyridin-5-yl)-1H-imidazol-2-yl)-2,3-dihydroindolizin-5(1H)-one] | – | – | > 10000 | 7900
9 | C[C@H]1C[C@@H](c2ncc(-c3ccn4nccc4c3)[nH]2)n2c1cc(-c1c(-n3cnnn3)ccc(Cl)c1F)cc2=O (stereo in doubt) [Example 53, (1*S,3*S)-7-(3-Chloro-2-fluoro-6-(1H-tetrazol-1-yl)phenyl)-1-methyl-3-(5-(pyrazolo[1,5-a]pyridin-5-yl)-1H-imidazol-2-yl)-2,3-dihydroindolizin-5(1H)-one] | 54 | 43.7 | – | –
10 | C[C@H]1C[C@@H](c2cnc(-c3ccc(N)nc3F)[nH]2)n2c1cc(-c1c(-n3cnnn3)ccc(Cl)c1F)cc2=O (stereo in doubt) [Example 54, (1 S*,3S*)-3-(2-(6-Amino-2-fluoropyridin-3-yl)-1H-imidazol-5-yl)-7-(3-chloro-2-fluoro-6-(1H-tetrazol-1-yl)phenyl)-1-methyl-2,3-dihydroindolizin-5(1H)-one] | – | 430 | > 10000 | –
11 | C[C@@H]1C[C@H](c2cnc(-c3ccc(N)nc3F)[nH]2)n2c1cc(-c1c(-n3cnnn3)ccc(Cl)c1F)cc2=O (stereo in doubt) [Example 55, (1R*,3R*)-3-(2-(6-Amino-2-fluoropyridin-3-yl)-1H-imidazol-5-yl)-7-(3-chloro-2-fluoro-6-(1H-tetrazol-1-yl)phenyl)-1-methyl-2,3-dihydroindolizin-5(1H)-one] | 42.5 | 1.1 | – | –
12 | C[C@@H]1C[C@H](c2ncc(-c3ccc(N)nc3F)[nH]2)n2c1cc(-c1c(-n3cnnn3)ccc(Cl)c1F)cc2=O (stereo in doubt) [Example 56, (1*R,3*R)-3-(5-(6-Amino-2-fluoropyridin-3-yl)-1H-imidazol-2-yl)-7-(3-chloro-2-fluoro-6-(1H-tetrazol-1-yl)phenyl)-1-methyl-2,3-dihydroindolizin-5(1H)-one] | – | – | > 10000 | 1200
13 | C[C@@H]1CC(c2ncc(-c3cnc(N)c(F)c3)[nH]2)n2c1cc(-c1c(-n3cnnn3)ccc(Cl)c1F)cc2=O (stereo in doubt) [Example 60, (1*R)-3-(5-(6-Amino-5-fluoropyridin-3-yl)-1H-imidazol-2-yl)-7-(3-chloro-2-fluoro-6-(1H-tetrazol-1-yl)phenyl)-1-methyl-2,3-dihydroindolizin-5(1H)-one] | 185 | 47.8 | – | –
14 | C[C@H]1C[C@@H](c2ncc(-c3ccc(N)nc3F)[nH]2)n2c1cc(-c1c(-n3cnnn3)ccc(Cl)c1F)cc2=O (stereo in doubt) [Example 68, (1*S,3*S)-3-(5-(6-Amino-2-fluoropyridin-3-yl)-1H-imidazol-2-yl)-7-(3-chloro-2-fluoro-6-(1H-tetrazol-1-yl)phenyl)-1-methyl-2,3-dihydroindolizin-5(1H)-one] | – | – | > 10000 | > 10000
15 | Nc1ccc(-c2[nH]c(C3CC4(CC4)c4nc(-c5c(-n6cnnn6)ccc(Cl)c5F)cc(=O)n43)nc2F)c(F)n1 (stereo in doubt) [Example 76, (S)-6′-(5-(6-amino-2-fluoropyridin-3-yl)-4-fluoro-1H-imidazol-2-yl)-2′-(3-chloro-2-fluoro-6-(1H-tetrazol-1-yl)phenyl)-6′,7′-dihydro-4′H-spiro[cyclopropane-1,8′-pyrrolo[1,2-a]pyrimidin]-4′-one] | 12.1 | 0.8 | – | –
16 | COc1cc(-c2cnc([C@@H]3C[C@H](C)c4nc(-c5c(-n6cnnn6)ccc(Cl)c5F)cc(=O)n43)[nH]2)ccn1 (stereo in doubt) [Example 97, (6*S,8*S)-2-(3-Chloro-2-fluoro-6-(1H-tetrazol-1-yl)phenyl)-6-(5-(2-methoxypyridin-4-yl)-1H-imidazol-2-yl)-8-methyl-7,8-dihydropyrrolo[1,2-a]pyrimidin-4(6H)-one] | – | – | > 10000 | 6400
17 | COc1cc(-c2cnc([C@@H]3C[C@@H](C)c4nc(-c5c(-n6cnnn6)ccc(Cl)c5F)cc(=O)n43)[nH]2)ccn1 (stereo in doubt) [Example 98, (6*S,8*R)-2-(3-Chloro-2-fluoro-6-(1H-tetrazol-1-yl)phenyl)-6-(5-(2-methoxypyridin-4-yl)-1H-imidazol-2-yl)-8-methyl-7,8-dihydropyrrolo[1,2-a]pyrimidin-4(6H)-one] | 135 | 143 | – | –
18 | COc1cc(-c2cnc([C@H]3C[C@@H](C)c4nc(-c5c(-n6cnnn6)ccc(Cl)c5F)cc(=O)n43)[nH]2)ccn1 (stereo in doubt) [Example 99, (6*R,8*R)-2-(3-Chloro-2-fluoro-6-(1H-tetrazol-1-yl)phenyl)-6-(5-(2-methoxypyridin-4-yl)-1H-imidazol-2-yl)-8-methyl-7,8-dihydropyrrolo[1,2-a]pyrimidin-4(6H)-one] | 23.8 | 8 | – | –
19 | COc1cc(-c2cnc([C@H]3C[C@H](C)c4nc(-c5c(-n6cnnn6)ccc(Cl)c5F)cc(=O)n43)[nH]2)ccn1 (stereo in doubt) [Example 100, (6*R,8*S)-2-(3-Chloro-2-fluoro-6-(1H-tetrazol-1-yl)phenyl)-6-(5-(2-methoxypyridin-4-yl)-1H-imidazol-2-yl)-8-methyl-7,8-dihydropyrrolo[1,2-a]pyrimidin-4(6H)-one] | 7.6 | 6.9 | – | –
20 | C[C@H]1C[C@@H](c2ncc(-c3cn[nH]c3)[nH]2)n2c1nc(-c1c(-n3cnnn3)ccc(Cl)c1F)cc2=O (stereo in doubt) [Example 107, (6*S,8*S)-6-(5-(1H-Pyrazol-4-yl)-1H-imidazol-2-yl)-2-(3-chloro-2-fluoro-6-(1H-tetrazol-1-yl)phenyl)-8-methyl-7,8-dihydropyrrolo[1,2-a]pyrimidin-4(6H)-one] | 95.9 | 2.4 | – | –
21 | C[C@@H]1C[C@H](c2ncc(-c3cn[nH]c3)[nH]2)n2c1nc(-c1c(-n3cnnn3)ccc(Cl)c1F)cc2=O (stereo in doubt) [Example 108, (6*R,8*R)-6-(5-(1H-Pyrazol-4-yl)-1H-imidazol-2-yl)-2-(3-chloro-2-fluoro-6-(1H-tetrazol-1-yl)phenyl)-8-methyl-7,8-dihydropyrrolo[1,2-a]pyrimidin-4(6H)-one] | – | 90.3 | 7100 | –
